Measured values from ChEMBL document CHEMBL1909046, “DrugMatrix in vitro pharmacology data”.

Experiments:
Histamine H2 receptor = Histamine H2 receptor (Homo sapiens, UniProt P25021); assay type: cell membranes, CHO-K1, Membrane; conditions: for Ki: read-out: Ki; for all read-outs here: in other assays of this panel Not Active means under 50% inhibition at 10 µM
[1] = molecular target: T1, Neuropeptide Y receptor type 1 (Homo sapiens, UniProt P25929); assay type: cell membranes, Membrane; conditions: sk-n-mc; note: in other assays of this panel Not Active means under 50% inhibition at 10 µM
T1 sequence (P25929 whole entry): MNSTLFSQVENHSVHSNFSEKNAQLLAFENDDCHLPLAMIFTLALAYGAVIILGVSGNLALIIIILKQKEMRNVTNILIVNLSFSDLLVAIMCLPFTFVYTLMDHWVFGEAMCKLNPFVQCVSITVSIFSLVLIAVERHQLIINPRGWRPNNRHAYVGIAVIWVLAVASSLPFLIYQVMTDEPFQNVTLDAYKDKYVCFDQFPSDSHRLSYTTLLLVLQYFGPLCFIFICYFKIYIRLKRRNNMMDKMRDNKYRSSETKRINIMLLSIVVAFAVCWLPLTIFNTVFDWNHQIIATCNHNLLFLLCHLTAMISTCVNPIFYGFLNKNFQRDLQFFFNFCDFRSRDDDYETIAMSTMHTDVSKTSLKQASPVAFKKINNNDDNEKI

Progesterone receptor = molecular target: T2, Progesterone receptor (Bos taurus, UniProt Q690N0); experiment: DRUGMATRIX: Progesterone radioligand binding (ligand: [3H] R-5020); assay type: tissue-based, Uterus; conditions: Not Active = under 50% inhibition at 10 µM
T2 sequence (Q690N0 whole entry): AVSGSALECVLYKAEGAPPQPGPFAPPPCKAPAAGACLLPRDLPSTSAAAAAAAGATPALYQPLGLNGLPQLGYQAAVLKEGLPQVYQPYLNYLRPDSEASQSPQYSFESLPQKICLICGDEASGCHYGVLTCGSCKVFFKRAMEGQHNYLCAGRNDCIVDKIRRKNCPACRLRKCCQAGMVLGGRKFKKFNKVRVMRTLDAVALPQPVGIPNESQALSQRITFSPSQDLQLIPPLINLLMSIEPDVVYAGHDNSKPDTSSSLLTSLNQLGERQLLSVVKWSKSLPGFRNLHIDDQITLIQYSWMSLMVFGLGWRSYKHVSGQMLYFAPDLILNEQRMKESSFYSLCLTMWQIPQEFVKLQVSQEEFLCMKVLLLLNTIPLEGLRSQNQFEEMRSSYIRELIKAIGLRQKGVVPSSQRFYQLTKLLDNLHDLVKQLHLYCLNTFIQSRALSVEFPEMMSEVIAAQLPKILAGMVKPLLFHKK

Interstitial collagenase = molecular target: T3, Interstitial collagenase (Homo sapiens, UniProt P03956); experiment: biochemical; assay type: tissue-based, Rheumatoid synovial fibroblasts;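 note: MMP-1 enzyme inhibition assay using a peptide substrate; in other assays of this panel Not Active means under 50% inhibition at 10 µM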
T3 sequence (P03956 whole entry): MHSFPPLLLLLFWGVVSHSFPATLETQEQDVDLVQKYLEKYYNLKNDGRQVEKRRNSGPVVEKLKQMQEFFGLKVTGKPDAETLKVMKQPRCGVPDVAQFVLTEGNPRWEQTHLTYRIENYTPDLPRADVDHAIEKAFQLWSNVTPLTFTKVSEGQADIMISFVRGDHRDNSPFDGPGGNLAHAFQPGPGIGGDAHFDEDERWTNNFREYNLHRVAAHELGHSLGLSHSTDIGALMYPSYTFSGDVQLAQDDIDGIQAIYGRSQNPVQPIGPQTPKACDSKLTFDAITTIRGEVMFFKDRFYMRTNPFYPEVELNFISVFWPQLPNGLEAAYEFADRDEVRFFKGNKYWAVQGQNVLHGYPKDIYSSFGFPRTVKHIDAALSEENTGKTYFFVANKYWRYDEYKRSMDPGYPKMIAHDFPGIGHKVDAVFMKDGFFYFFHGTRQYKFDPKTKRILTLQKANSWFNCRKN

[2] = molecular target: Tyrosine-protein kinase Fyn (Homo sapiens, UniProt P06241); experiment: biochemical; assay type: cell-based, Insect cells;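 note: enzymatic inhibition of Fyn kinase activity measured with Poly(Glu:Tyr) as the phosphorylation substrate; in other assays of this panel Not Active means under 50% inhibition at 10 µM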
Chain of Tyrosine-protein kinase Fyn (P06241 whole entry): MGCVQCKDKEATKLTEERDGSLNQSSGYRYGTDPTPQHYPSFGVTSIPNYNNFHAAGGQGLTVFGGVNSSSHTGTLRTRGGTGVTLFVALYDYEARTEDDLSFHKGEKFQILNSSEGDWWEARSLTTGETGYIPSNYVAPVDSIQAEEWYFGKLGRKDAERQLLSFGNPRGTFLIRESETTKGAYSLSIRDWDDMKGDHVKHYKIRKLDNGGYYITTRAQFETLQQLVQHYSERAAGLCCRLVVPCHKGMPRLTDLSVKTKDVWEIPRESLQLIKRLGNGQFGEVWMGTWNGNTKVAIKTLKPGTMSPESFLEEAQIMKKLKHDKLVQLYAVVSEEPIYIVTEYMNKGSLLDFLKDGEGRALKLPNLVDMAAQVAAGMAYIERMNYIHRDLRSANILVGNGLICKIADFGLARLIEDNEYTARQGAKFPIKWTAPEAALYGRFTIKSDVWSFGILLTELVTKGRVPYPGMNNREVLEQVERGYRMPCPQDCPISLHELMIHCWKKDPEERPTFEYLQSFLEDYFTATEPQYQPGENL

Chain of Histamine H2 receptor (P25021 whole entry): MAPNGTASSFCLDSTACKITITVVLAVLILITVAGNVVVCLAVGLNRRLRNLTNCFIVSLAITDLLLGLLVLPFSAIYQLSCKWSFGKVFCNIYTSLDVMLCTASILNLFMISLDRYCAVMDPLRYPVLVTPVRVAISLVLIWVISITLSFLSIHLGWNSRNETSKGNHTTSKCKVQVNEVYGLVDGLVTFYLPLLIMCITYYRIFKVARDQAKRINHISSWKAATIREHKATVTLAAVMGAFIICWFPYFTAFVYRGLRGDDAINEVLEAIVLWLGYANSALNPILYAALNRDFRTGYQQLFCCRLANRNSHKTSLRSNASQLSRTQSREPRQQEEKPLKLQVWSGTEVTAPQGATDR

SMILES	IC50 (Histamine H2 receptor; cho-k1)	IC50 [1]	IC50 (Progesterone receptor)	IC50 (Interstitial collagenase)	IC50 ([2]; insect cells)	IC50 (Histamine H2 receptor; read-out: IC50)	Ki (Histamine H2 receptor)	IC50 (Progesterone receptor; read-out: IC50)	Ki (Progesterone receptor; read-out: Ki)	IC50 ([2]; read-out: IC50)
CC(=N)S [THIOACETAMIDE]	Not Active	Not Active	Not Active	Not Active	Not Active	–	–	–	–	–
O=C1C[C@@H]2OCC=C3CN4CC[C@]56c7ccccc7N1[C@H]5[C@H]2[C@H]3C[C@H]46 [STRYCHNINE]	Not Active	Not Active	Not Active	Not Active	Not Active	–	–	–	–	–
Nc1ccc(S(=O)(=O)NC(=O)c2ccccc2)cc1 [SULFABENZAMIDE]	Not Active	Not Active	Not Active	Not Active	Not Active	–	–	–	–	–
CC(=O)OCC(COC(C)=O)OC(C)=O [TRIACETIN]	Not Active	Not Active	Not Active	Not Active	Not Active	–	–	–	–	–
CCCCC(=O)N(Cc1ccc(-c2ccccc2-c2nnn[nH]2)cc1)[C@H](C(=O)O)C(C)C	Not Active	Not Active	Not Active	Not Active	Not Active	–	–	–	–	–
OCCOCCN1CCN(C2=Nc3ccccc3Sc3ccccc32)CC1 [QUETIAPINE]	Not Active	Not Active	Not Active	Not Active	Not Active	–	–	–	–	–
CC1CCC(NC(=O)N(CCCl)N=O)CC1 (stereo not drawn) [SEMUSTINE]	Not Active	Not Active	Not Active	Not Active	Not Active	–	–	–	–	–
Oc1ccc2c3c1O[C@H]1[C@@H](O)CC[C@@]4(O)[C@@H](C2)N(CC2CCC2)CC[C@]314 [NALBUPHINE]	Not Active	Not Active	Not Active	Not Active	Not Active	–	–	–	–	–
Clc1ccc(COC(Cn2ccnc2)c2ccc(Cl)cc2Cl)c(Cl)c1 (stereo not drawn) [MICONAZOLE]	–	Not Active	–	Not Active	–	6.75 µM	6.64 µM	14.9 µM	1.94 µM	4.16 µM
O=C(O)CCCCC1CCSS1 (stereo not drawn) [LIPOIC ACID, ALPHA]	Not Active	Not Active	Not Active	Not Active	Not Active	–	–	–	–	–
CCCCCCCCNC(C)C(O)c1ccc(SC(C)C)cc1 (stereo not drawn) [SULOCTIDIL]	–	Not Active	Not Active	Not Active	–	0.108 µM	0.0885 µM	–	–	0.722 µM
COC(=O)[C@H]1[C@H]2C[C@@H]3c4[nH]c5cc(OC)ccc5c4CCN3C[C@H]2C[C@@H](OC(=O)c2cc(OC)c(OC)c(OC)c2)[C@@H]1OC [RESERPINE]	Not Active	Not Active	Not Active	Not Active	Not Active	–	–	–	–	–
O=c1[nH]c(=O)n(C2CCCO2)cc1F (stereo not drawn) [TEGAFUR]	Not Active	Not Active	Not Active	Not Active	Not Active	–	–	–	–	–
CC(C)NC[C@H](O)COc1cccc2ccccc12 [LEVOPROPRANOLOL]	Not Active	Not Active	Not Active	Not Active	Not Active	–	–	–	–	–
